Laboratory results published in US12661345B2, “Compositions for the treatment of hypertension” (The George Institute for Global Health, priority 2017, dated 2026).

Key:
[1] = tested on: participants with migraine; test: Office blood pressure in 12-week double blind randomized 3×3 factorial trial; assay type: in vivo, human
Description: (§1) There was a 4 week screening period and another 4-week post study drug observational period.
There was a 4-week screening period and another 4-week post study drug observational period.
(§2) Group 2 received the low-dose BP lowering combination and simvastatin (i.e., telmisartan 20 mg+amlodipine 2.5 mg+simvastatin). Group 3 received the low-dose BP lowering combination and placebo (i.e., telmisartan 20 mg+amlodipine 2.5 mg+placebo). […] Group 9 received double placebo.
Office BP was measured following the recommendations of the Australian National Heart Foundation. Participants were rested in the seated position for 5 minutes, an appropriate cuff size was selected and 3 measurements of BP were recorded using an Omron HEM907 monitor or equivalent validated automated digital BP monitor. Principles of automated office BP measurements were applied whereby the patient was left alone during BP recording.
(§3) All analyses of study outcomes were conducted according to the principle of intention-to-treat. The analyses of continuous outcomes such SBP and LDL-cholesterol at 12 weeks was performed using ANCOVA including the treatment arm and baseline values as a covariate. Additional analyses included interim measurements in a longitudinal model including treatment arm, visit, and treatment by visit interaction as well as the baseline measurement. Within-patient correlations were modelled using generalized estimating equations. A similar approach was applied to binary endpoints with log-binomial regression used in place of linear regression. There were also pre-defined subgroup analyses, baseline BP, baseline LDL, gender and age.

[2] = tested on: participants with migraine; test: Subject status / participant withdrawals by visit in the 3×3 factorial trial
LDL = LDL laboratory test in the 3×3 factorial trial; assay type: in vivo, human; conditions: Week 12 v/s Baseline
Description: as §1, §2
Change in DBP and SBP • 2. Change in LDL Secondary Outcomes: • 1. Tolerability: • a. […] Difference between groups in participant withdrawals from treatment • 2. Safety: Percentage with any severe adverse event (SAE) • 3. Medication adherence: self-reported measures, pill counts BP Measurement:
Potassium (K+), sodium (Na+), serum creatinine and LDL were measured at screening and at the 12-week end of treatment follow-up visit.
as §3

[3] = Randomization (baseline, before treatment)
[4] = Week 16 (after 4-week post study drug period)

Compound: CCC(C)(C)C(=O)O[C@H]1C[C@@H](C)C=C2C=C[C@H](C)[C@H](CC[C@@H]3C[C@@H](O)CC(=O)O3)[C@H]21 [Simvastatin, simvastatin]
- Diastolic Blood Pressure Mean (SD) [1, 3]: 9 82.7 (8.43) mmHg
- Diastolic Blood Pressure Q1 [1, 3]: 76.0 mmHg
- Diastolic Blood Pressure Q2 [1, 3]: 81.0 mmHg
- Diastolic Blood Pressure Q3 [1, 3]: 89.0 mmHg
- Diastolic Blood Pressure max [1, 3]: 96 mmHg
- Diastolic Blood Pressure min [1, 3]: 72 mmHg
- Systolic Blood Pressure Mean (SD) [1, 3]: 9 124.2 (13.17) mmHg
- Systolic Blood Pressure Q1 [1, 3]: 114.7 mmHg
- Systolic Blood Pressure Q2 [1, 3]: 123.0 mmHg
- Systolic Blood Pressure Q3 [1, 3]: 132.7 mmHg
- Systolic Blood Pressure max [1, 3]: 147 mmHg
- Systolic Blood Pressure min [1, 3]: 107 mmHg
- Diastolic Blood Pressure Mean (SD) ([1]; Week 4): 9 77.5 (6.98) mmHg
- Diastolic Blood Pressure Q1 ([1]; Week 4): 74.0 mmHg
- Diastolic Blood Pressure Q2 ([1]; Week 4): 77.7 mmHg
- Diastolic Blood Pressure Q3 ([1]; Week 4): 81.3 mmHg
- Diastolic Blood Pressure max ([1]; Week 4): 90 mmHg
- Diastolic Blood Pressure min ([1]; Week 4): 68 mmHg
- Systolic Blood Pressure Mean (SD) ([1]; Week 4): 9 122.2 (14.06) mmHg
- Systolic Blood Pressure Q1 ([1]; Week 4): 113.7 mmHg
- Systolic Blood Pressure Q2 ([1]; Week 4): 119.3 mmHg
- Systolic Blood Pressure Q3 ([1]; Week 4): 126.7 mmHg
- Systolic Blood Pressure max ([1]; Week 4): 146 mmHg
- Systolic Blood Pressure min ([1]; Week 4): 102 mmHg
- Diastolic Blood Pressure Mean (SD) ([1]; Week 8): 9 77.1 (6.07) mmHg
- Diastolic Blood Pressure Q1 ([1]; Week 8): 72.3 mmHg
- Diastolic Blood Pressure Q2 ([1]; Week 8): 78.7 mmHg
- Diastolic Blood Pressure Q3 ([1]; Week 8): 81.7 mmHg
- Diastolic Blood Pressure max ([1]; Week 8): 84 mmHg
- Diastolic Blood Pressure min ([1]; Week 8): 68 mmHg
- Systolic Blood Pressure Mean (SD) ([1]; Week 8): 9 117.0 (11.50) mmHg
- Systolic Blood Pressure Q1 ([1]; Week 8): 111.0 mmHg
- Systolic Blood Pressure Q2 ([1]; Week 8): 115.3 mmHg
- Systolic Blood Pressure Q3 ([1]; Week 8): 124.3 mmHg
- Systolic Blood Pressure max ([1]; Week 8): 135 mmHg
- Systolic Blood Pressure min ([1]; Week 8): 95 mmHg
- Diastolic Blood Pressure Mean (SD) ([1]; Week 12 (end of treatment)): 9 78.4 (10.70) mmHg
- Diastolic Blood Pressure Q1 ([1]; Week 12 (end of treatment)): 78.3 mmHg
- Diastolic Blood Pressure Q2 ([1]; Week 12 (end of treatment)): 81.3 mmHg
- Diastolic Blood Pressure Q3 ([1]; Week 12 (end of treatment)): 85.7 mmHg
- Diastolic Blood Pressure max ([1]; Week 12 (end of treatment)): 87 mmHg
- Diastolic Blood Pressure min ([1]; Week 12 (end of treatment)): 54 mmHg
- Systolic Blood Pressure Mean (SD) ([1]; Week 12 (end of treatment)): 9 117.8 (14.06) mmHg
- Systolic Blood Pressure Q1 ([1]; Week 12 (end of treatment)): 111.0 mmHg
- Systolic Blood Pressure Q2 ([1]; Week 12 (end of treatment)): 120.0 mmHg
- Systolic Blood Pressure Q3 ([1]; Week 12 (end of treatment)): 125.7 mmHg
- Systolic Blood Pressure max ([1]; Week 12 (end of treatment)): 135 mmHg
- Systolic Blood Pressure min ([1]; Week 12 (end of treatment)): 88 mmHg
- Change in DBP from baseline to 12 weeks Mean (SD) ([1]; Week 12 v/s Baseline): 9 −4.3 (8.95) mmHg
- Change in DBP from baseline to 12 weeks Q1 ([1]; Week 12 v/s Baseline): −8.7 mmHg
- Change in DBP from baseline to 12 weeks Q2 ([1]; Week 12 v/s Baseline): −3.7 mmHg
- Change in DBP from baseline to 12 weeks Q3 ([1]; Week 12 v/s Baseline): −0.7 mmHg
- Change in DBP from baseline to 12 weeks max ([1]; Week 12 v/s Baseline): 9 mmHg
- Change in DBP from baseline to 12 weeks min ([1]; Week 12 v/s Baseline): −22 mmHg
- Change in SBP from baseline to 12 weeks Mean (SD) ([1]; Week 12 v/s Baseline): 9 −6.4 (8.24) mmHg
- Change in SBP from baseline to 12 weeks Q1 ([1]; Week 12 v/s Baseline): −12.0 mmHg
- Change in SBP from baseline to 12 weeks Q2 ([1]; Week 12 v/s Baseline): −4.7 mmHg
- Change in SBP from baseline to 12 weeks Q3 ([1]; Week 12 v/s Baseline): 0.3 mmHg
- Change in SBP from baseline to 12 weeks max ([1]; Week 12 v/s Baseline): 5 mmHg
- Change in SBP from baseline to 12 weeks min ([1]; Week 12 v/s Baseline): −19 mmHg
- Diastolic Blood Pressure Mean (SD) [1, 4]: 9 80.5 (7.29) mmHg
- Diastolic Blood Pressure Q1 [1, 4]: 74.3 mmHg
- Diastolic Blood Pressure Q2 [1, 4]: 80.7 mmHg
- Diastolic Blood Pressure Q3 [1, 4]: 87.0 mmHg
- Diastolic Blood Pressure max [1, 4]: 90 mmHg
- Diastolic Blood Pressure min [1, 4]: 71 mmHg
- Systolic Blood Pressure Mean (SD) [1, 4]: 9 118.3 (10.11) mmHg
- Systolic Blood Pressure Q1 [1, 4]: 109.7 mmHg
- Systolic Blood Pressure Q2 [1, 4]: 116.7 mmHg
- Systolic Blood Pressure Q3 [1, 4]: 123.0 mmHg
- Systolic Blood Pressure max [1, 4]: 136 mmHg
- Systolic Blood Pressure min [1, 4]: 107 mmHg
- Discontinuing the study (n/N) ([2]; Week 4): 0/9
- Discontinuing the study (percent) ([2]; Week 4): (0.0%)
- Discontinuing: Deceased (n/N) ([2]; Week 4): 0/0
- Discontinuing: Deceased (percent) ([2]; Week 4): (0.0%)
- Discontinuing the study (n/N) ([2]; Week 8): 0/9
- Discontinuing the study (percent) ([2]; Week 8): (0.0%)
- Discontinuing: Deceased (n/N) ([2]; Week 8): 0/0
- Discontinuing: Deceased (percent) ([2]; Week 8): (0.0%)
- Discontinuing the study (n/N) ([2]; Week 12): 0/9
- Discontinuing the study (percent) ([2]; Week 12): (0.0%)
- Discontinuing: Deceased (n/N) ([2]; Week 12): 0/0
- Discontinuing: Deceased (percent) ([2]; Week 12): (0.0%)
- Deceased (n/N) ([2]; Week 16): 0/9
- Deceased (percent) ([2]; Week 16): (0.0%)
- Change in LDL from baseline to 12 weeks Mean (SD) (LDL): 9 −1.0 (0.38) mmol/l
- Change in LDL from baseline to 12 weeks Q1 (LDL): -1.2 mmol/L
- Change in LDL from baseline to 12 weeks Q2 (LDL): -1.0 mmol/L
- Change in LDL from baseline to 12 weeks Q3 (LDL): -0.8 mmol/L
- Change in LDL from baseline to 12 weeks max (LDL): -1 mmol/L
- Change in LDL from baseline to 12 weeks min (LDL): -2 mmol/L
